Measured values taken from paper PMC9503608, “An Insight into Symmetrical Cyanine Dyes as Promising Selective Antiproliferative Agents in Caco-2 Colorectal Cancer Cells” (Molecules, 2022).

Assays:
Caco-2 cells [1] = assay: Morphological analysis by inverted microscopy; format: cell-based, human; settings: 72 h, 20 or 40× magnification, versus untreated cells
Protocol: After the near confluency of the culture, trypsinisation, and counting, Caco-2 cells were seeded (3 mL; 3 × 10^4 cells/mL) in 35 mm cell culture dishes with treatment for the tissue culture. Following 48 h of adherence, the cells were treated with the test solutions and incubated for 72 h in an environment protected from light. At every 24 h, cellular morphology was verified in an Olympus CKX41 SF inverted microscope with a 10, 20, or 40× objective, and the analysis was based on comparing the cells with and without treatment. Cell imaging was captured using a DC6V Olympus digital camera coupled to the microscope.

[2] = tested on: normal human dermal fibroblasts (NHDF); assay: MTT cell viability assay, NHDF; format: cell-based; settings: Homo sapiens, NHDF, 72 h, 72 h of incubation, MTT, protected from light
Protocol: (§1) Caco-2, MCF-7, PC-3, and NHDF cell lines were obtained from the American Type Culture Collection (ATCC) and maintained in 75 cm^2 culture flasks in a humidified atmosphere at 37 °C with 5% carbon dioxide using a LEEC Culture Safe Precision CO2 Incubator. The culture media was renewed every two to three days. The NHDF cell line was cultured in Roswell Park Memorial Institute (RPMI) medium supplemented with 10% of inactivated fetal bovine serum (FBS), 2 mM of L-glutamine, 10 mM of 4-(2-hydroxyethyl)-1-piperazineethanesulfonic acid (HEPES), 1 mM of sodium pyruvate, and 1% of antibiotic/antimycotic mixture (Ab; 10,000 U/mL of penicillin G, […] of streptomycin, and 25 µg/mL of amphotericin B). The PC-3 cell line was also cultured in RPMI 1640 medium supplemented with 10% inactivated FBS and 1% of an antibiotic mixture (Sp; 10,000 U/mL of penicillin G and […] of streptomycin). The Caco-2 and MCF-7 cell lines were grown in Dulbecco’s Modified Eagle Medium (DMEM). Caco-2 was supplemented with 20% of inactivated FBS and 1% of Sp. On the other hand, the MCF-7 medium was complemented with 10% of inactivated FBS and 1% of Ab. All manipulations were performed in a Labculture Class II A2 Biological Safety Cabinet.
(§2) After the near confluency of cultures, cells were detached with a solution of 0.125 g/L trypsin and 0.02 g/L ethylenediaminetetracetic acid (EDTA), counted using the trypan blue method, resuspended, and seeded in 96-well culture plates (100 µL, 2 × 10^4 cells/mL). Following 48 h of adherence, cells were treated with the test solutions and incubated for 72 h. This incubation, as well as the solution manipulations, were performed in an environment protected from light. After the incubation, the medium was replaced with a fresh incomplete culture medium (without FBS and Ab or Sp) and MTT solution (5 mg/mL in phosphate buffer saline (PBS)). After additional incubation for 4 h, the MTT medium was removed, formazan crystals were dissolved in DMSO, and the optical density of each well was measured at 570 nm using a microplate spectrophotometer Bio-Rad xMark. Untreated cells were used as a negative control and 5-FU as the positive control. The results were expressed as the relative cell proliferation relative to the negative control cells. […] To determine the IC50 values, Caco-2, MCF-7, PC-3, and NHDF cells were exposed to increasing concentrations between 0.001 and 100 μM.

[3] = MTT cell viability assay, NHDF; format: cell-based, human; settings: human, normal human dermal fibroblasts (NHDF), single concentration of 10 µM, 72 h, mean ± SD; read-out: cell viability percentage in relation with control, NHDF
Protocol: as §1, §2

Caco-2 cells [4] = assay: Cell cycle distribution by propidium iodide staining and flow cytometry; format: cell-based, human; settings: dye 12 and 5-FU 10 µM 72 h, sorbitol 600 mM 24 h, versus untreated cells
Protocol: The apoptosis occurrence and influence of the dye 12 on the cell cycle were evaluated using propidium iodide (PI) staining and flow cytometry, as described by Riccardi and Nicolleti. After the near confluency of the culture, trypsinisation, and counting, Caco-2 cells were seeded (2 mL, 3 × 10^4 cells/mL) in 6-well plates. After 48 h of adherence, the cells were treated with the test solutions (3 mL and 5 mL for negative control) and incubated for 72 h. Untreated cells were used as the negative control, and sorbitol and 5-FU [56] were used as positive controls for the apoptosis and cell cycle distribution studies, respectively. After incubation, the supernatant was collected and the cells were washed with PBS and combined with the cells harvested using the trypsin treatment. This cell suspension was maintained on ice and centrifugated, and then the pellet was resuspended in 0.5 mL of PBS. The cells were fixed by adding 4.5 mL of 70% ethanol cooled at −20 °C and were stored at the same temperature. For the cytometry analysis, PBS was added to the fixed cells before centrifugation, and then the ethanolic supernatant was removed. The pellet was resuspended in 0.5 mL of PBS and 0.5 mL of DNA extraction (192 mL of 0.2 M sodium phosphate and 8 mL of […], pH 7.8) was added. After incubation for 5 min, the cells were centrifuged, the supernatant was removed, and the pellet resuspended in 0.3 mL of staining solution (20 µg/mL of PI and 0.2 mg/mL of DNase-free RNase in PBS). Using a FACSCalibur flow cytometer and the 488 nm laser line, a minimum of 20,000 events were recorded. Acquisition and apoptosis analysis was performed using BD CellQuestTM Pro 4.0.2 Software. Cell cycle analysis was performed with ModFit LT 5.0.9 software. To exclude debris and necrotic cells, events with a lower diameter (forward scatter; FCS) and reduced PI fluorescence (FL3) than the hypodiploid apoptotic cells were eliminated. Two independent experiments were performed.

[5] = tested on: MCF-7 breast adenocarcinoma cell line; assay: MTT cell viability assay, MCF-7; format: cell-based, human; settings: Homo sapiens
Protocol: as §1, §2

morphological changes of Caco-2 cells (Caco-2 cells [1]; 1 µM): no visible differences | morphological changes of Caco-2 cells (Caco-2 cells [1]; 10 µM): evident contraction | IC50 ([5]; MCF7, 72 h of incubation, MTT, protected from light): 4.57 µM
Structure (SMILES): CN1C(=Cc2oc3ccccc3[n+]2C)Oc2ccccc21.Cc1ccc(S(=O)(=O)[O-])cc1 [Dye 12, 3-Methyl-2-((3-methylbenzo[d]oxazol-2(3H)-ylidene)methyl)benzo[d]oxazol-3-ium 4-methylbenzenesulfonate]
IC50 [2]: 14 µM | viability at 72 h, 10 µM [3]: 41 ± 0.82% | effect on cell cycle distribution (Caco-2 cells [4]): notorious increase in the number of cells in the G0/G1 phase | viability at 10 µM ([5]; MCF7, 72 h, single concentration of 10 µM, 72 h, mean ± SD, read-out: cell viability percentage in relation with control, MCF-7): 10.8 ± 1.98%
